Test results taken from patent US20260022143A1, “Cyclic Peptide Inhibitors of IL-23” (JANSSEN PHARMACEUTICA NV, priority 2022, published 2026).
Like-named read-outs stand apart in the source and are kept apart here. Starred links: 1 amine or outer side, 2 acyl side, 3 side chain; linkers in the order of their positions; H or OH if unused. Positions of bridges follow the written chain, without caps; N, C: chain ends. Non-standard residues stand in square brackets, D forms with d. Residues, ends and D or L forms follow the SMILES beside them. *: point of attachment. Me3N+CH2CH2(OCH2CH2)4CO = C[N+](C)(C)CCOCCOCCOCCOCCC(=O)*; Trp(7-Me) = Cc1cccc2c(C[C@H](N)C(=O)O)c[nH]c12; 3Pal(5-Me) = Cc1cncc(C[C@H](N)C(=O)O)c1; X1 = CN(CC[C@H](N[*:1])C(=O)[*:2])[*:3]; 2Nal = N[C@@H](Cc1ccc2ccccc2c1)C(=O)O; AEF = NCCOc1ccc(C[C@H](N)C(=O)O)cc1; X24 = C[N+](C)(CCN[*:1])CC(=O)[*:2]; 3Pal = N[C@@H](Cc1cccnc1)C(=O)O; Lys(Me) = CNCCCC[C@H](N)C(=O)O; X7 = COCCOCCOCCOCCOCCOCCC(=O)*; Pen = CC(C)(S)[C@H](N)C(=O)O; Thp = NC1(C(=O)O)CCOCC1; X3 = C[N+](C)(C)CCCCC*; X25 = COCCOCCN(C)*; Sar = CNCC(=O)O; X2 = CNCC*

How the values were obtained:
IL-23R = target: T1, IL-23R (Homo sapiens, UniProt Q5VWK5); test: IL23R Reporter Assay; format: cell-based; conditions: HEK293 cells containing IL-23R, IL-12RP1 and STAT-inducible firefly luciferase reporter; 10 ng/mL IL-23 (EC90); 5 h at 37° C.; read-out: IL23R Reporter Assay
T1 construct: host or cells: HEK293
T1 sequence (Q5VWK5 24-629): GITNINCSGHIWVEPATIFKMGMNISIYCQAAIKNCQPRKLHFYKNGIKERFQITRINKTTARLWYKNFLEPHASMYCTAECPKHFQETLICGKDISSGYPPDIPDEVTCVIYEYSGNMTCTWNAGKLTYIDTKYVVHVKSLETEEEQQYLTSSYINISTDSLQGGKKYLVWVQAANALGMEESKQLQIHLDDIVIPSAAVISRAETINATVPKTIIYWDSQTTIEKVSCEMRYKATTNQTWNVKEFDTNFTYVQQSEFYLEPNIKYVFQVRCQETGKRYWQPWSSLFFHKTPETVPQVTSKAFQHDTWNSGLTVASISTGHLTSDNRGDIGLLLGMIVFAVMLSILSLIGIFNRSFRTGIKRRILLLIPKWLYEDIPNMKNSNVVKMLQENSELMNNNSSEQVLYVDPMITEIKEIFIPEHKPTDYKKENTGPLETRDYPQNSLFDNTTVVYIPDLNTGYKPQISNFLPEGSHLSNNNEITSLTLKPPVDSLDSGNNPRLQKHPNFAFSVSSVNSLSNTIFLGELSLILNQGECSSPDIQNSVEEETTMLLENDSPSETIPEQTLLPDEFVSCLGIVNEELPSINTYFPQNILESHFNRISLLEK

[1] = Exposed Polar Surface Area (EPSA); format: physicochemical; conditions: SFC on Chirex 3014 column, sample 1 mM DMSO stock
Procedure, shortened: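 Chirex 3014 column, 35 °C, 4 mL/min; CO2/MeOH + 20 mM NH4 formate, 5→60% modifier at 20%/min. UV/MS detection. EPSA (Å^2) from retention time vs 8-standard calibration line; duplicates; 1 mM DMSO stock injected undiluted.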

Structure (SMILES)	IC50 (IL-23R) [nM]	EPSA ([1]; listed as 2) [Å^2]	EPSA ([1]; read-out: EPSA) [A^2]
CNCCOc1ccc(C[C@H](NC(=O)[C@H]2NC(=O)[C@H](CCCCN(C)C(C)=O)NC(=O)[C@H](Cc3c[nH]c4c(C)cccc34)NC(=O)[C@H]([C@@H](C)O)NC(=O)[C@H](CC(=O)NC)NC(=O)[C@@H](NC(C)=O)C(C)(C)SSC2(C)C)C(=O)N[C@@H](Cc2ccc3ccccc3c2)C(=O)NC2(C(=O)N[C@@H](CCCCN(C)C(C)=O)C(=O)N[C@@H](CC(N)=O)C(=O)N[C@@H](Cc3cccnc3)C(=O)N(C)CC(=O)NC)CCOCC2)cc1 [SEQ ID 67] (Ac-[Pen]D(NHMe)T[Trp(7-Me)][Lys(Me)](Ac)[Pen]Y(X2)[2Nal][Thp][Lys(Me)](Ac)N[3Pal][Sar]-NHMe; disulfide 1-6 (inferred))	1050	184	150
COCCOCCN(C)C(=O)CN(C)C(=O)[C@H](Cc1cccnc1)NC(=O)[C@H](CC(N)=O)NC(=O)[C@H](CCC(=O)O)NC(=O)C1(NC(=O)[C@H](Cc2ccc3ccccc3c2)NC(=O)[C@H](Cc2ccc(OCCN)cc2)NC(=O)[C@H]2NC(=O)[C@H](CCCCNC(C)=O)NC(=O)[C@H](Cc3c[nH]c4c(C)cccc34)NC(=O)[C@H]([C@@H](C)O)NC(=O)[C@H](CC(N)=O)NC(=O)[C@@H](NC(C)=O)C(C)(C)SSC2(C)C)CCOCC1 [compound 113] (Ac-[Pen]NT[Trp(7-Me)]K(Ac)[Pen][AEF][2Nal][Thp]EN[3Pal][Sar]-X25; disulfide 1-6 (inferred))	3.8	–	169
COCCOCCOCCOCCOCCOCCC(=O)NCC[N+](C)(C)CC(=O)N[C@@H]1C(=O)N[C@@H](CC(=O)N(C)C)C(=O)N[C@@H]([C@@H](C)O)C(=O)N[C@@H](Cc2c[nH]c3c(C)cccc23)C(=O)N[C@@H](CCN(C)C(=O)CCOCCOCCOCCOCC[N+](C)(C)C)C(=O)N[C@H](C(=O)N[C@@H](Cc2ccc(OCCN)cc2)C(=O)N[C@@H](Cc2ccc3ccccc3c2)C(=O)NC2(C(=O)N[C@@H](CCC(=O)O)C(=O)N[C@@H](CC(N)=O)C(=O)N[C@@H](Cc3cccnc3)C(=O)N(C)CC(=O)N(C)C)CCOCC2)C(C)(C)SSC1(C)C [compound 143, mPEG6CO-SP6-Pen(3)-N(N(Me)2)-T-7MeW-Dab(NMecPEG5a)-Pen(3)-AEF-2Nal-THP-E-N-3Pya-Sar-CON(Me)2] (X7-[X24][Pen]D(NMe2)T[Trp(7-Me)][X1](Me3N+CH2CH2(OCH2CH2)4CO)[Pen][AEF][2Nal][Thp]EN[3Pal][Sar]-NMe2; disulfide 2-7 (inferred))	6.5	–	161
COCCOCCOCC[N+](C)(C)CCc1cn(C[C@H](NC(=O)[C@H]2NC(=O)[C@H](CCCCN(C)C(C)=O)NC(=O)[C@H](Cc3c[nH]c4c(C)cccc34)NC(=O)[C@H]([C@@H](C)O)NC(=O)[C@H](CC(=O)N(C)C)NC(=O)[C@@H](NC(=O)CCOCCOCC[N+](C)(C)C)C(C)(C)SSC2(C)C)C(=O)N[C@@H](Cc2ccc3ccccc3c2)C(=O)NC2(C(=O)N[C@@H](CCCCN(C)C(C)=O)C(=O)N[C@@H](CC(N)=O)C(=O)N[C@@H](Cc3cccnc3)C(=O)N(C)CC(=O)N(C)C)CCOCC2)nn1 [compound 289, cPEG3aCO-Pen(3)-N(N(Me)2)-T-7MeW-K(NMeAc)-Pen(3)-TzlChmPEG3-2Nal-THP-K(NMeAc)-N-3Pya-Sar-CON(Me)2]	79	–	142
CC(=O)NCCCC[C@@H]1NC(=O)[C@H](Cc2c[nH]c3c(C)cccc23)NC(=O)[C@H]([C@@H](C)O)NC(=O)[C@H](CC(N)=O)NC(=O)[C@@H](NC(=O)[C@@H](CCCNC(=N)N)NC(C)=O)C(C)(C)SSC(C)(C)[C@@H](C(=O)N[C@@H](Cc2ccc(OCCCCC[N+](C)(C)C)cc2)C(=O)N[C@@H](Cc2ccc3ccccc3c2)C(=O)NC2(C(=O)N[C@@H](CCCCNC(C)=O)C(=O)N[C@@H](CC(N)=O)C(=O)N[C@@H](Cc3cncc(C)c3)C(=O)N(C)CC(N)=O)CCOCC2)NC1=O [compound 532, MeCO-r-Pen(3)-N-T-7MeW-K(Ac)-Pen(3)-TMAPF-2Nal-THP-K(Ac)-N-5MePyridinAla-Sar-CONH2] (Ac-[dR][Pen]NT[Trp(7-Me)]K(Ac)[Pen]Y(X3)[2Nal][Thp]K(Ac)N[3Pal(5-Me)][Sar]-NH2; disulfide 2-7)	0.9	–	171
